Measurements from US20160016907A1, “PYRIDINE DERIVATIVES AS MUSCARINIC M1 RECEPTOR POSITIVE ALLOSTERIC MODULATORS” (PFIZER INC., priority 2014, published 2016).

Target: T1, human M1 muscarinic acetylcholine receptors (Homo sapiens, UniProt P11229)
T1 sequence (P11229 1-460): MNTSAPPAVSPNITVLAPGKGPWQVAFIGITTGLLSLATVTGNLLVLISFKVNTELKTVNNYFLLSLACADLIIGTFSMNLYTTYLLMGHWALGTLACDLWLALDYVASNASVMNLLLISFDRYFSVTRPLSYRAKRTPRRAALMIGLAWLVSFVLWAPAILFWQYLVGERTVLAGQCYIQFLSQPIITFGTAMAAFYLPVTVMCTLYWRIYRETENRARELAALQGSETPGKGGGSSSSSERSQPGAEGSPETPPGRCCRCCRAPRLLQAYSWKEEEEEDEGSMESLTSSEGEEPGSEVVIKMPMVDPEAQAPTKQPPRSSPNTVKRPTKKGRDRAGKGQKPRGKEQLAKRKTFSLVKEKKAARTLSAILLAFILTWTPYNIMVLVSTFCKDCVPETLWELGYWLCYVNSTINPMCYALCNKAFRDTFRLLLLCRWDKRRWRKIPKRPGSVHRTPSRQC
Experiment: M1 FLIPR assay (PAM, intracellular calcium)
Type: cell-based
Settings: potentiation of EC10-EC30 acetylcholine, values marked a: geometric mean of ≧7 determinations, read-out: M1 PAM Inflection Point (μM) Geometric mean of 2-6 determinations (unless otherwise indicated)
Method: This assay was designed to select and characterize compounds that affect the activity of human M1 muscarinic acetylcholine receptors (Similar M1 PAM FLIPR assays can be found, for example, at U.S. Pat. No. 8,664,234). Human M1 receptors were stably expressed in Chinese hamster ovary (CHO) cells (HD Bioscience). The effect of test compounds on intracellular calcium was measured on an FLIPR Tetra (Molecular Devices) using the Fluo-8, AM calcium dye (Molecular Probes) with a red dye quenching agent (Sigma).
CHO cells expressing hM1 cells had been previously cultured and frozen in assay ready vials. Cell vials were thawed, then plated at a density of 10,000 cells per well in a 384 well black wall, clear bottom plate (Greiner #781090) and incubated overnight at 37 degrees C. with 5% CO2. Cells were grown and plated in F12 nutrient media (Gibco BRL #21700-075) supplemented with 10% FBS (Hyclone #CH30160.03) and Pen/Strep (Gibco #15070-063).
After overnight incubation, cell plates were removed from the incubator and the growth media was discarded and replaced with loading solution containing the following: 2 μM Fluo-8-AM (Molecular Probes #F14242), 2 mM Probenecid (Sigma #P8761), lx Acid Red 1 (Sigma #210633), in HBSS buffer containing (grams/L): 0.1 CaCl2, 0.1 MgCl2*6H2O, 0.049 MgSO4, 0.4 KCl, 0.06 KH2PO4, 8.06 NaCl, 0.12 Na2HPO4*12H2O, 1.1 D-glucose*H2O, 0.35 NaHCO3, 4.766 HEPES, pH 7.4. The plate was incubated in the loading solution at 37 degrees C. in the dark for 1 hour.
Test compounds were initially prepared as 100% DMSO stock solutions, then transferred and serially diluted in 384-well compound plates (Greiner #784201). Each compound was tested at 10 concentrations in duplicate per experiment. Positive and negative controls for positive allosteric modulator evaluation were 30 μM acetylcholine (Ach) and an EC10-EC30 concentration of acetylcholine, approximately 2 nM but could be adjusted for each experiment to maintain the EC10-EC30 range.
After the 1-hour dye loading incubation, test compounds were added to the cell plate containing Fluo-8. Approximately 10 minutes after compound addition, an EC10-EC30 concentration of acetylcholine was added to each well and the fluorescence measured to determine the PAM potentiation of the compound.
Data was exported from the FLIPR Tetra as maximum fluorescence/minimum fluorescence for each well. The percent effect for each compound well was determined using the mean values for the positive and negative controls on each plate for each read. Percent effect was 100*(compound negative control)/(positive control negative control). Dose response curves were fitted to the compound percent effect data using a 4-parameter logistic fit model to determine PAM (positive allosteric modulator) Inflection Point values. Compounds with inverted U dose response curves had the concentrations greater than the concentration giving the peak response excluded from the fit. Data was reported as Inflection Point. The compounds of Examples 1-72 had activity according to this assay, generally with an Inflection Point (IP) of 10 μM or less (using Inflection Point as a measure of activity). Such a result is indicative of the intrinsic activity of the compounds of the invention as M1 allosteric modulators.

EC50 [µM]	Compound
3.63	Cc1cnc(C(=O)N[C@H](CO)C(C)C)cc1Cc1ccc(-n2cccn2)cc1 [Example 38, N-[(2S)-1-hydroxy-3-methylbutan-2-yl]-5-methyl-4-[4-(1H-pyrazol-1-yl)benzyl]pyridine-2-carboxamide]
3.44	Cc1cnc(C(=O)NC2CCOCC2)cc1Cc1ccc(-n2cccn2)cc1 [Example 33, 5-methyl-4-[4-(1H-pyrazol-1-yl)benzyl]-N-(tetrahydro-2H-pyran-4-yl)pyridine-2-carboxamide]
3.5	Cc1cnc(C(=O)NC2CCC(F)(F)C2)cc1Cc1ccc(-n2cccn2)cc1 (stereo not drawn) [Example 48, N-(3,3-difluorocyclopentyl)-5-methyl-4-[4-(1H-pyrazol-1-yl)benzyl]pyridine-2-carboxamide]
1.83	Cc1cnc(C(=O)N[C@H]2CCOC[C@@H]2O)cc1C(F)c1ccc(-c2cscn2)cc1 (single isomer, unassigned; diastereomer 1) [Example 59]
4.86	Cc1cnc(C(=O)N[C@@H]2CCOC[C@H]2O)cc1Cc1ccc(-n2cccn2)cc1 [Example 8, N-[(3S,4R)-3-Hydroxytetrahydro-2H-pyran-4-yl]-5-methyl-4-[4-(1H-pyrazol-1-yl)benzyl]pyridine-2-carboxamide]
4.39	Cc1cnc(NC(=O)c2cc(Cc3ccc(-n4cccn4)cc3)c(C)cn2)nc1 [Example 24, 5-methyl-N-(5-methylpyrimidin-2-yl)-4-[4-(1H-pyrazol-1-yl)benzyl]pyridine-2-carboxamide]
0.03	Cc1cnc(C(=O)N[C@H]2CCOC[C@@H]2O)cc1[C@H](F)c1ccc(-n2cccn2)cc1 [Example 56, 4-{(R)-Fluoro[4-(1H-pyrazol-1-yl)phenyl]methyl}-N-[(3R,4S)-3-hydroxytetrahydro-2H-pyran-4-yl]-5-methylpyridine-2-carboxamide]
4.6	Cc1cnc(C(=O)NCC2CCOCC2)cc1Cc1ccc(-n2cccn2)cc1 [Example 32, 5-methyl-4-[4-(1H-pyrazol-1-yl)benzyl]-N-(tetrahydro-2H-pyran-4-ylmethyl)pyridine-2-carboxamide]
1.14	COc1ccc(Cc2cc(C(=O)N[C@H]3CCCC[C@@H]3O)nc(C)c2Cl)cc1 [Example 25, 5-chloro-N-[(1S,2S)-2-hydroxycyclohexyl]-4-(4-methoxybenzyl)-6-methylpyridine-2-carboxamide]
1.95	Cc1nnc(-c2ccc(Cc3cc(C(=O)NC4CCOCC4O)ncc3C)cc2)o1 (single isomer, unassigned) [Example 21]
1.02	Cc1cnc(C(=O)NC2CCCC2O)cc1Cc1ccc(-n2cccn2)cc1 (racemic) [Example 34, N-[trans-2-hydroxycyclopentyl]-5-methyl-4-[4-(1H-pyrazol-1-yl)benzyl]pyridine-2-carboxamide]
8.76	Cc1cnc(C(=O)N[C@H]2CCCC[C@@H]2O)cc1C(F)c1ccc(-n2cccn2)cc1 (single isomer, unassigned) [Example 63]
9.64	Cc1cnc(C(=O)NCC2CC2)cc1Cc1ccc(-n2cccn2)cc1 [Example 40, N-(cyclopropylmethyl)-5-methyl-4-[4-(1H-pyrazol-1-yl)benzyl]pyridine-2-carboxamide]
0.146	Cc1nc(-c2ccc(Cc3cc(C(=O)NC4CCOCC4O)ncc3C)cc2)co1 (single isomer, unassigned; (+)) [Example 11, (+)-N-[(3,4-trans)-3-Hydroxytetrahydro-2H-pyran-4-yl]-5-methyl-4-[4-(2-methyl-1,3-oxazol-4-yl)benzyl]pyridine-2-carboxamide]
0.092	Cc1cnc(C(=O)N[C@H]2CCCC[C@@H]2O)cc1Cc1ccc(-n2cccn2)cc1 [Example 18, N-[(1S,2S)-2-Hydroxycyclohexyl]-5-methyl-4-[4-(1H-pyrazol-1-yl)benzyl]pyridine-2-carboxamide]
7.21	Cc1cnc(C(=O)NCC2CCO2)cc1Cc1ccc(-n2cccn2)cc1 (stereo not drawn) [Example 45, 5-methyl-N-(oxetan-2-ylmethyl)-4-[4-(1H-pyrazol-1-yl)benzyl]pyridine-2-carboxamide]
1.63	Cc1cnc(C(=O)NC2CCCC2O)cc1Cc1ccc(-n2cccn2)cc1 (racemic) [Example 49, N-[cis-2-hydroxycyclopentyl]-5-methyl-4-[4-(1H-pyrazol-1-yl)benzyl]pyridine-2-carboxamide]
4.77	Cc1cnc(C(=O)NC2CC3(COC3)C2)cc1Cc1ccc(-n2cccn2)cc1 [Example 28, 5-methyl-N-(2-oxaspiro[3.3]hept-6-yl)-4-[4-(1H-pyrazol-1-yl)benzyl]pyridine-2-carboxamide]
0.271	Cc1c[n+]([O-])c(C(=O)N[C@H]2CCOC[C@@H]2O)cc1Cc1ccc(-n2cccn2)cc1 [Example 53, N-[(3R,4S)-3-hydroxytetrahydro-2H-pyran-4-yl]-5-methyl-4-[4-(1H-pyrazol-1-yl)benzyl]pyridine-2-carboxamide 1-oxide]
0.18	Cc1cnc(C(=O)N[C@H]2CCOC[C@@H]2O)cc1Cc1ccc(-c2cnn(C)c2)nc1 [Example 65, N-[(3R,4S)-3-hydroxytetrahydro-2H-pyran-4-yl]-5-methyl-4-{[6-(1-methyl-1H-pyrazol-4-yl)pyridin-3-yl]methyl}pyridine-2-carboxamide]
0.129	O=C(N[C@H]1CCOC[C@@H]1O)c1cc(Cc2ccc(-n3cccn3)cc2)c(OC(F)F)cn1 [Example 62, 5-(difluoromethoxy)-N-[(3R,4S)-3-hydroxytetrahydro-2H-pyran-4-yl]-4-[4-(1H-pyrazol-1-yl)benzyl]pyridine-2-carboxamide]
0.104	COc1cnc(C(=O)N[C@H]2CCCC[C@@H]2O)cc1Cc1ccc(-n2cccn2)cc1 [Example 70, N-[(1S,2S)-2-hydroxycyclohexyl]-5-methoxy-4-[4-(1H-pyrazol-1-yl)benzyl]pyridine-2-carboxamide]
0.142	COc1cnc(C(=O)N[C@H]2CCCC[C@@H]2O)cc1Cc1ccc(-c2coc(C)n2)cc1 [Example 72, N-[(1S,2S)-2-hydroxycyclohexyl]-5-methoxy-4-[4-(2-methyl-1,3-oxazol-4-yl)benzyl]pyridine-2-carboxamide]
0.101	Cc1cnc(C(=O)N[C@H]2CCOC[C@@H]2O)cc1Cc1ccc(-c2nccs2)cc1 [Example 3, N-[(3R,4S)-3-Hydroxytetrahydro-2H-pyran-4-yl]-5-methyl-4-[4-(1,3-thiazol-2-yl)benzyl]pyridine-2-carboxamide]
0.065	COc1cnc(C(=O)N[C@H]2CCOC[C@@H]2O)cc1Cc1ccc(-n2cccn2)cc1 [Example 15, N-[(3R,4S)-3-Hydroxytetrahydro-2H-pyran-4-yl]-5-methoxy-4-[4-(1H-pyrazol-1-yl)benzyl]pyridine-2-carboxamide]
0.363	Cc1nc(-c2ccc(Cc3cc(C(=O)N[C@H]4CCCC[C@@H]4O)ncc3C)cc2)co1 [Example 23, N-[(1S,2S)-2-hydroxycyclohexyl]-5-methyl-4-[4-(2-methyl-1,3-oxazol-4-yl)benzyl]pyridine-2-carboxamide]
5.04	Cc1cnc(C(=O)N[C@H]2C[C@H](CO)C2)cc1Cc1ccc(-n2cccn2)cc1 [Example 26, N-[trans-3-(hydroxymethyl)cyclobutyl]-5-methyl-4-[4-(1H-pyrazol-1-yl)benzyl]pyridine-2-carboxamide]
